Measured values: patent US20250134869A1, “Pyrrolo[2,3-d]pyrimidinyl, Pyrrolo[2,3-b]pyrazinyl and Pyrrolo[2,3-d]pyridinyl Acryla-mides” (Pfizer Inc, priority 2021, published 2025)
Read-outs that look alike come from different tables or passages of the source.

Target: JAK3 enzyme (Homo sapiens (Human), UniProt P52333)
Assay: JAK Caliper Enzyme Assay at 4 μM or 1 mM ATP
Format: biochemical
[1] = read-out: JAK3 (4 μM ATP) IC50, 4 μM ATP
[2] = read-out: JAK3 (1 mM ATP) IC50, 1 mM ATP

Chain of JAK3 enzyme (P52333 whole entry, species assumed): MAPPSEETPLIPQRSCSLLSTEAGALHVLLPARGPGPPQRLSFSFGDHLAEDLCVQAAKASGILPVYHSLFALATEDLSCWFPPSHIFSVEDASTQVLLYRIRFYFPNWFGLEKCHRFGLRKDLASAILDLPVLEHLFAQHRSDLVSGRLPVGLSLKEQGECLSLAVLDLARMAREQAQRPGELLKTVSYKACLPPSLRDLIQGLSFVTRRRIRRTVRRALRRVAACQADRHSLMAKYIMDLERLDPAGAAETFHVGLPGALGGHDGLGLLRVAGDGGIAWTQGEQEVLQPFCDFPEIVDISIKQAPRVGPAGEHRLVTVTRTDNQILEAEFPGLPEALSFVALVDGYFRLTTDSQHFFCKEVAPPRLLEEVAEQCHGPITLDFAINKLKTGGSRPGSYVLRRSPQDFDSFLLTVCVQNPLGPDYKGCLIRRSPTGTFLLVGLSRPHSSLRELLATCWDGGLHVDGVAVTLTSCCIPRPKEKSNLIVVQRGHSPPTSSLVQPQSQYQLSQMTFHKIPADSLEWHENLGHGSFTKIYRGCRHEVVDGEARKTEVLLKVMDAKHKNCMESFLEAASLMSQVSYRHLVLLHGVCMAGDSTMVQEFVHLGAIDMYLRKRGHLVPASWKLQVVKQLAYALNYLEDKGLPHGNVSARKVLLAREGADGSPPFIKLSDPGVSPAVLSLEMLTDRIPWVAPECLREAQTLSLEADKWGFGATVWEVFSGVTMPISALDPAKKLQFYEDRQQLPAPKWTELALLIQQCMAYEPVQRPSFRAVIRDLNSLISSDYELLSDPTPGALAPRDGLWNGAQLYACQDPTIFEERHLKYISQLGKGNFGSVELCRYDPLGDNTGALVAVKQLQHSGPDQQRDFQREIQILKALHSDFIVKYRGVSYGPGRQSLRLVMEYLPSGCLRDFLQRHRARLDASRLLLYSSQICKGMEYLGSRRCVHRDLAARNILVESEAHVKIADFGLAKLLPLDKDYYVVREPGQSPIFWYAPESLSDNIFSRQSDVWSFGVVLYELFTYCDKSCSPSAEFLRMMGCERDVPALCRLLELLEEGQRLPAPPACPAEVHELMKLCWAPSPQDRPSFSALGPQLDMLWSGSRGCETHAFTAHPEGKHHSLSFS

| Structure (SMILES) | IC50 [1] | IC50 [2] |
| --- | --- | --- |
| C=CC(=O)N1CCC(Oc2cnc3[nH]cc(-c4ccc(C)nc4)c3n2)CC1 [Example 214, 1-(4-{[7-(6-methylpyridin-3-yl)-5H-pyrrolo[2,3-b]pyrazin-2-yl]oxy}piperidin-1-yl)prop-2-en-1-one] | 2.3 nM | 308 nM |
| C=CC(=O)N1CCN(c2cnc3[nH]cc(C(=O)NC(C)C)c3n2)[C@@H](C)C1 [Example 297, 2-[(2S)-4-acryloyl-2-methylpiperazin-1-yl]-N-(propan-2-yl)-5H-pyrrolo[2,3-b]pyrazine-7-carboxamide] | 1.5 nM | 181 nM |
| C=CC(=O)N1C[C@H](C#N)C[C@@H](Nc2ncnc3[nH]ccc23)C1 [Example 6, (3R,5R)-5-((7H-pyrrolo[2,3-d]pyrimidin-4-yl)amino)-1-acryloylpiperidine-3-carbonitrile] | 0.3 nM | 40 nM |
| C=CC(=O)N1CC[C@@]2(C)CCN(c3ncnc4[nH]ccc34)[C@H]2C1 [Example 122, 1-((3aR,7aR)-3a-Methyl-1-(7H-pyrrolo[2,3-d]pyrimidin-4-yl)hexahydro-1H-pyrrolo[2,3-c]pyridin-6 (2H)-yl)prop-2-en-1-one] | 75.6 nM | > 10000 nM |
| C=CC(=O)N1CCC[C@@H](Nc2ncnc3[nH]cc(CCO)c23)C1 [Example 55, (R)-1-(3-((5-(2-Hydroxyethyl)-7H-pyrrolo[2,3-d]pyrimidin-4-yl)amino)piperidin-1-yl)prop-2-en-1-one] | 2 nM | 203 nM |
| C=CC(=O)N1C[C@@H](F)C[C@@H](Nc2ncnc3[nH]ccc23)C1 [Example 15, 1-((3R,5S)-3-((7H-Pyrrolo[2,3-d]pyrimidin-4-yl)amino)-5-fluoropiperidin-1-yl)prop-2-en-1-one] | 0.9 nM | 82.7 nM |
| C=CC(=O)N1CCC(Nc2cnc3[nH]cc(-c4cccnc4)c3n2)CC1 [Example 205, 1-(4-{[7-(pyridin-3-yl)-5H-pyrrolo[2,3-b]pyrazin-2-yl]amino}piperidin-1-yl)prop-2-en-1-one] | 0.5 nM | 14.8 nM |
| N#CC(C(=O)N1CCC[C@@H](Nc2ncnc3[nH]ccc23)C1)=C1CCOCC1 [Example 101, 3-oxo-3-[(3R)-3-(7H-pyrrolo[2,3-d]pyrimidin-4-ylamino)piperidin-1-yl]-2-(tetrahydro-4H-pyran-4-ylidene)propanenitrile] | 881 nM | > 10000 nM |
| C=CC(=O)N1CC[C@@H](CNc2cnc3[nH]cc(C(=O)NC(C)C)c3n2)C1 [Example 191, 2-({[(3S)-1-acryloylpyrrolidin-3-yl]methyl}amino)-N-(propan-2-yl)-5H-pyrrolo[2,3-b]pyrazine-7-carboxamide] | 1.5 nM | 138 nM |
| C/C=C/C(=O)N1CCC[C@@H](Nc2ncnc3[nH]ccc23)C1 [Example 95, (2E)-1-[(3R)-3-(7H-pyrrolo[2,3-d]pyrimidin-4-ylamino)piperidin-1-yl]but-2-en-1-one] | 2480 nM | > 1000 nM |
| C=CC(=O)N1CC[C@@H](Nc2cnc3[nH]cc(C(=O)NC(C)C)c3n2)[C@@H](OC)C1 [Example 302, 2-{[(3S,4R)-1-acryloyl-3-methoxypiperidin-4-yl]amino}-N-(propan-2-yl)-5H-pyrrolo[2,3-b]pyrazine-7-carboxamide] | 1.2 nM | 49.4 nM |
| C=CC(=O)N1CCC(Nc2cnc3[nH]cc(C(=O)N[C@H](C)CCC)c3n2)CC1 [Example 274, 2-[(1-acryloylpiperidin-4-yl)amino]-N-[(2R)-pentan-2-yl]-5H-pyrrolo[2,3-b]pyrazine-7-carboxamide] | 0.2 nM | 8.2 nM |
| C=CC(=O)N1CCC(Nc2cnc3[nH]cc(C(=O)NC4CC(F)C4)c3n2)CC1 (centres unmarked) [Example 243, 2-[(1-acryloylpiperidin-4-yl)amino]-N-(3-fluorocyclobutyl)-5H-pyrrolo[2,3-b]pyrazine-7-carboxamide] | < 0.1 nM | 9 nM |
| C=CC(=O)N1CCN(c2cnc3[nH]cc(C(=O)NC(C)C)c3n2)CC1(C)C [Example 293, 2-(4-acryloyl-3,3-dimethylpiperazin-1-yl)-N-(propan-2-yl)-5H-pyrrolo[2,3-b]pyrazine-7-carboxamide] | 0.6 nM | 107 nM |
| C=CC(=O)N1CCC[C@@H](Nc2ncnc3[nH]cc(CCC#N)c23)C1 [Example 62, 3-(4-{[(3R)-1-Acryloylpiperidin-3-yl]amino}-7H-pyrrolo[2,3-d]pyrimidin-5-yl)propanenitrile] | 9 nM | 650 nM |
| C=CC(=O)N1CCC[C@@H](Nc2ncnc3[nH]cc(CCOC)c23)C1 [Example 46, 1-[(3R)-3-{[5-(2-methoxyethyl)-7H-pyrrolo[2,3-d]pyrimidin-4-yl]amino}piperidin-1-yl]prop-2-en-1-one] | 2.8 nM | 305 nM |
| C=CC(=O)N1CCC(Oc2cnc3[nH]cc(-c4cncnc4)c3n2)CC1 [Example 215, 1-(4-{[7-(pyrimidin-5-yl)-5H-pyrrolo[2,3-b]pyrazin-2-yl]oxy}piperidin-1-yl)prop-2-en-1-one] | 2.9 nM | 386 nM |

| Structure (SMILES) | IC50 [1] | IC50 [2] |
| --- | --- | --- |
| C/C=C/C(=O)N1CCC[C@@H](Nc2ncnc3[nH]cc(CCOC)c23)C1 [Example 109, (2E)-1-[(3R)-3-{[5-(2-methoxyethyl)-7H-pyrrolo[2,3-d]pyrimidin-4-yl]amino}pipendin-1-yl]but-2-en-1-one] | 2820 nM |  |
| C=CC(=O)N[C@H]1C[C@H](Nc2cnc3[nH]cc(C(=O)NC(C)C)c3n2)C1 [Example 198, 2-{[trans-3-(acryloylamino)cyclobutyl]amino}-N-(propan-2-yl)-5H-pyrrolo[2,3-b]pyrazine-7-carboxamide] | 1 nM | 77.6 nM |
| C=CC(=O)N1CC[C@H]2CN(c3ncnc4[nH]ccc34)[C@H]2C1 [Example 134, 1-[(1R,6S)-8-(7H-Pyrrolo[2,3-d]pyrimidin-4-yl)-3,8-diazabicyclo[4.2.0]oct-3-yl]prop-2-en-1-one] | 71.2 nM |  |
| C=CC(=O)N1CCC[C@@H](Nc2ncnc3[nH]cc(C)c23)C1 [Example 43, 1-{(3R)-3-[(5-methyl-7H-pyrrolo[2,3-d]pyrimidin-4-yl)amino]piperidin-1-yl}prop-2-en-1-one] | 1.2 nM | 99.5 nM |
| C=CC(=O)N1CCC[C@@H](Nc2ncnc3[nH]cc(-c4ccc5c(cnn5C)c4)c23)C1 [Example 34, 1-[(3R)-3-{[5-(1-methyl-1H-indazol-5-yl)-7H-pyrrolo[2,3-d]pyrimidin-4-yl]amino}piperidin-1-yl]prop-2-en-1-one] | 54.4 nM | 4820 nM |
| C=CC(=O)N1CCC(Nc2cnc3[nH]cc(C(=O)NC45CC(C4)C5)c3n2)CC1 [Example 281, 2-[(1-acryloylpiperidin-4-yl)amino]-N-(bicyclo[1.1.1]pent-1-yl)-5H-pyrrolo[2,3-b]pyrazine-7-carboxamide] | 0.4 nM | 5.2 nM |
| C=CC(=O)N1CCC(Nc2cnc3[nH]cc(C(=O)NC[C@H](C)CC(F)(F)F)c3n2)CC1 [Example 241, 2-[(1-acryloylpiperidin-4-yl)amino]-N-[(2R)-4,4,4-trifluoro-2-methylbutyl]-5H-pyrrolo[2,3-b]pyrazine-7-carboxamide] | 0.2 nM | 7.3 nM |
| C=CC(=O)N1CCC(Nc2cnc3[nH]cc(C(=O)N[C@H](C)CC)c3n2)CC1 [Example 289, 2-[(1-acryloylpiperidin-4-yl)amino]-N-[(2R)-butan-2-yl]-5H-pyrrolo[2,3-b]pyrazine-7-carboxamide] | 0.3 nM | 7.1 nM |
| C=CC(=O)N1CCC(Nc2cnc3[nH]cc(C(=O)N[C@H]4CC[C@@H](F)C4)c3n2)CC1 [Example 244, 2-[(1-acryloylpiperidin-4-yl)amino]-N-[(1S,3R)-3-fluorocyclopentyl]-5H-pyrrolo[2,3-b]pyrazine-7-carboxamide] | 0.2 nM | 7.3 nM |
| C=CC(=O)N1Cc2ncn(C)c2C(Nc2ncnc3[nH]ccc23)C1 (centres unmarked) [Example 166, 1-[1-Methyl-7-(7H-pyrrolo[2,3-d]pyrimidin-4-ylamino)-1,4,6,7-tetrahydro-5H-imidazo[4,5-c]pyridin-5-yl]prop-2-en-1-one] | 370 nM | > 10000 nM |
| C=CC(=O)N1CCC[C@@H](Nc2ncnc3[nH]cc(CC#N)c23)C1 [Example 20, (R)-2-(4-((1-Acryloylpiperidin-3-yl)amino)-7H-pyrrolo[2,3-d]pyrimidin-5-yl)acetonitrile] | 1 nM | 76.5 nM |
| C=CC(=O)N1CC[C@H]2CCN(c3ncnc4[nH]cc(C(C)=O)c34)[C@H]2C1 [Example 111, 1-[(3aR,7aR)-1-(5-Acetyl-7H-pyrrolo[2,3-d]pyrimidin-4-yl)octahydro-6H-pyrrolo[2,3-c]pyridin-6-yl]prop-2-en-1-one] | 39.2 nM | 4740 nM |
| C=CC(=O)N1CCC(Nc2cnc3[nH]cc(C(=O)NCC4(O)CCCC4)c3n2)CC1 [Example 232, 2-[(1-acryloylpiperidin-4-yl)amino]-N-[(1-hydroxycyclopentyl)methyl]-5H-pyrrolo[2,3-b]pyrazine-7-carboxamide] | 0.3 nM | 25 nM |
| C=CC(=O)N1CCC(Nc2cnc3[nH]cc(C(=O)NC4CCCCC4)c3n2)CC1 [Example 278, 2-[(1-acryloylpiperidin-4-yl)amino]-N-cyclohexyl-5H-pyrrolo[2,3-b]pyrazine-7-carboxamide] | 0.2 nM | 6.3 nM |
| C=CC(=O)N1CCN(c2cnc3[nH]cc(C(=O)NC(C)C)c3n2)C[C@@H]1C [Example 295, 2-[(3S)-4-acryloyl-3-methylpiperazin-1-yl]-N-(propan-2-yl)-5H-pyrrolo[2,3-b]pyrazine-7-carboxamide] | 1.1 nM | 89.8 nM |
| C=CC(=O)N1CCC(C)(Nc2cnc3[nH]cc(C(=O)NC(C)C)c3n2)CC1 [Example 318, 2-[(1-acryloyl-4-methylpiperidin-4-yl)amino]-N-(propan-2-yl)-5H-pyrrolo[2,3-b]pyrazine-7-carboxamide] | 0.3 nM | 21.3 nM |
| C=CC(=O)NC1CN(c2cnc3[nH]ccc3n2)C1 [Example 192, N-[1-(5H-pyrrolo[2,3-b]pyrazin-2-yl)azetidin-3-yl]prop-2-enamide] | 272 nM |  |
